# Measurements as given in US11518823B2, “Photoinitiators for light-curable compositions” (priority 2017, dated 2022).
# Values joined by “and” are separate entries in the source; they are usually repeats but may differ in a detail not shown here. Equal entries are not always repeated.
# What was measured:
# [1] = photo-DSC monitoring of photopolymerization in hexanediol diacrylate
# Method: (§1) In the following examples, of the inventive use of compounds of formula (I) as photo-initiators, reaction mixtures containing the respective photoinitiator, the specified liquid monomer and optionally a specified co-intiator were produced and cured for 10 min under a nitrogen atmosphere by exposure to an OmniCure® S2000 mercury lamp having a wave length filter of 320 to 500 nm and an UV light intensity of 1 W/cm^2, while the progress of the reactions was monitored by photo-DSC type NETSCH DSC 204 F1 Phoenix.
# (§2) All measurements were carried out at least twice, the respective tables showing the average values for the respective initiators.
# (§3) In the tables, RP represents the polymerization rate and is thus an indicator of the reactivity of a system. A high value means that many monomer groups are reacted at the same time and that the curing process is generally shorter. tmax is the time (in s) it takes until maximum heat development is reached and is thus an indicator of how long it takes to reach the gelling point and thus a certain initial solidity. Short times are thus more desirable. t95% is the time (in s) after which 95% of the entire reaction heat have been released and is thus an indicator of the rate at which a reaction occurs, lower values again being advantageous. DBC is the double bond conversion rate calculated based on the reaction heat released during polymerization (in J per g) of the respective formulation. For the conversion rate, it is desirable to achieve values that are as high as possible.
# (§4) In all formulations, the respective photoinitiator was used in an equimolar amount with respect to 1 wt % of ethyl pyruvate (1), which was the initiator having the lowest molecular weight, and weighed in accordingly, and co-initiators, if contained, were weighed in equimolar amounts with respect to the respective initiator. Subsequently, 12±0.5 mg of the reaction mixtures were weighed into DSC aluminum pans, and the pans were covered with cover glasses.
# [2] = photo-DSC monitoring of photopolymerization in dental dimethacrylate mixture
# Method: All measurements were carried out at least twice, the respective tables showing the average values for the respective initiators. In the tables, RP represents the polymerization rate and is thus an indicator of the reactivity of a system. A high value means that many monomer groups are reacted at the same time and that the curing process is generally shorter. tmax is the time (in s) it takes until maximum heat development is reached and is thus an indicator of how long it takes to reach the gelling point and thus a certain initial solidity. Short times are thus more desirable. t95% is the time (in s) after which 95% of the entire reaction heat have been released and is thus an indicator of the rate at which a reaction occurs, lower values again being advantageous. DBC is the double bond conversion rate calculated based on the reaction heat released during polymerization (in J per g) of the respective formulation. For the conversion rate, it is desirable to achieve values that are as high as possible. In all formulations, the respective photoinitiator was used in an equimolar amount with respect to 1 wt % of ethyl pyruvate (1), which was the initiator having the lowest molecular weight, and weighed in accordingly, and co-initiators, if contained, were weighed in equimolar amounts with respect to the respective initiator. […] In this group of experiments, the experiments from Examples 1 to 4 and Comparative Example 1 were repeated, using a di-methacrylate mixture from the field of dental engineering as a monomer instead of the diacrylate that had been used above.
# [3] = curing test in silicone mold, Intelli-Ray 400 W UV oven; conditions: 1 g HDDA with 1 wt % initiator, 100% power, after a few seconds
# [4] = photo-DSC monitoring of photopolymerization in divinyl adipate; conditions: monomer DVA, co-initiator DMAB
# Method: In the following examples, of the inventive use of compounds of formula (I) as photo-initiators, reaction mixtures containing the respective photoinitiator, the specified liquid monomer and optionally a specified co-intiator were produced and cured for 10 min under a nitrogen atmosphere by exposure to an OmniCure® S2000 mercury lamp having a wave length filter of 320 to 500 nm and an UV light intensity of 1 W/cm^2, while the progress of the reactions was monitored by photo-DSC type […]1 Phoenix. All measurements were carried out at least twice, the respective tables showing the average values for the respective initiators. In the tables, RP represents the polymerization rate and is thus an indicator of the reactivity of a system. A high value means that many monomer groups are reacted at the same time and that the curing process is generally shorter. tmax is the time (in s) it takes until maximum heat development is reached and is thus an indicator of how long it takes to reach the gelling point and thus a certain initial solidity. Short times are thus more desirable. t95% is the time (in s) after which 95% of the entire reaction heat have been released and is thus an indicator of the rate at which a reaction occurs, lower values again being advantageous. DBC is the double bond conversion rate calculated based on the reaction heat released during polymerization (in J per g) of the respective formulation. For the conversion rate, it is desirable to achieve values that are as high as possible. In all formulations, the respective photoinitiator was used in an equimolar amount with respect to 1 wt % of ethyl pyruvate (1), which was the initiator having the lowest molecular weight, and weighed in accordingly, and co-initiators, if contained, were weighed in equimolar amounts with respect to the respective initiator. Subsequently, 12±0.5 mg of the reaction mixtures were weighed into DSC aluminum pans, and the pans were covered with cover glasses.
# [5] = longwave absorption maximum; type: physicochemical
# Source text: (§5) PBQ was used as a commercially available reference initiator, with MDEA as a co-initiator. The ketoesters ethyl pyruvate (1) and dimethylfurandione (8) can be used as novel initiators without any co-initiator. Due to its longwave absorption maximum (λmax=378 nm instead of 330 nm for compound (1)), compound (8) can also be used using visible light which is harmless for cells.
# [6] = photo-DSC of hydrogel formulation with PEG700DA and 50 wt % water
# Method: as §1, §2, §3, §4, §5
# [7] = test system: mouse fibroblast cell line L929; type: cell-based
# Source text: This may constitute an additional advantage for biological applications in which hydrogels are commonly used.
# [8] = monomer HDDA, type I initiators, without any co-initiators (Table 5)
# [9] = monomer HDDA, type I, without any co-initiators
# [10] = monomer DDM, co-initiator DMAB (Table 7)
# [11] = monomer HDDA, co-initiator DMAB
# [12] = monomer HDDA, co-initiator MDEA
# [13] = monomer HDDA, no co-initiator listed (Table 3)
# [14] = dental formulation DDM, co-initiator DMAB (Table 12)
# [15] = monomer HDDA, co-initiator shown only as drawing (Table 11)
# [16] = monomer HDDA, co-initiator shown only as drawing, reference is benzophenone/amine system (Table 11)
# [17] = methacrylates, co-initiator DMAB (Table 10)
# [18] = HDDA, without any co-initiator (Table 10)
# [19] = acrylate (HDDA), co-initiator (Table 10, C8)
# [20] = monomer HDDA, co-initiator shown only as drawing (Table 13)
# [21] = monomer HDDA, co-initiator thiol
smiles,measurement,setting,value
"CCOC(=O)C(=O)C(C)(C)Br [Compound 5, 3-bromo-3-methyl-2-oxobutanoic Acid Ethyl Ester]",RP (polymerization rate),[1]; [8],239 mmol/L/s
same,DBC,[1]; [9],62.1%
same,t95%,[1]; [9],40.0 s
"COC(=O)C(=O)C(C)(C)C [Compound 4, 2-oxo-3,3-dimethylbutanoic Acid Methyl Ester]",DBC,[2]; [10],51%
same,RP (polymerization rate),[2]; [10],55.9 mmol/L/s
same,t95%,[2]; [10],69.5 s
same,DBC (double bond conversion),[1]; [11],59.1%
same,RP (polymerization rate),[1]; [11],170 mmol/L/s
same,t95% (time after which 95% of reaction heat released),[1]; [11],42.5 s
same,DBC,[1]; [12],64.6%
same,RP (polymerization rate),[1]; [12],234 mmol/L/s
same,t95%,[1]; [12],41.0 s
same,DBC,[1]; [13],64.6%
same,RP (polymerization rate),[1]; [13],214 mmol/L/s
same,t95%,[1]; [13],53.5 s
"CC(=O)C(=O)OCCN(C)C [Compound 10, N,N′-dimethylaminopyruvate]",result of curing test,[3],"transparent, hard sample rod was obtained"
"CCOC(=O)C(C)=O [Compound 1, 2-Oxopropanoic Acid Ethyl Ester]",DBC,[2]; [10],57%
same,RP (polymerization rate),[2]; [10],74.5 mmol/L/s
same,t95%,[2]; [10],83.0 s
same,Area,[4],466 J/g
same,DSC,[4],1.7 mW · mg^−1
same,longwave absorption maximum λmax,[5],330 nm
same,DBC (double bond conversion),[1]; [11],66.5%
same,RP (polymerization rate),[1]; [11],230 mmol/L/s
same,t95% (time after which 95% of reaction heat released),[1]; [11],41.7 s
same,DBC,[1]; [13],69.3%
same,RP (polymerization rate),[1]; [13],210 mmol/L/s
same,t95%,[1]; [13],56.0 s
same,DBC,[6]; without co-initiator,48%
same,RP (polymerization rate),[6]; without co-initiator,33 mmol/L/s
same,t95%,[6]; without co-initiator,83 s
"CC(C)(Br)C(=O)c1ccccc1 [BD, 2-bromo-2-methyl-1-phenylpropan-1-one, reference compound]",RP (polymerization rate),[1]; [8],146 mmol/L/s
same,DBC,[1]; [9],57.6%
same,t95%,[1]; [9],62.5 s
"CCOC(=O)CCC(=O)C(=O)OCC [Compound 9, α-Ketoglutaric Acid Diethyl Ester]",DBC,[2]; [14],53%
same,RP (polymerization rate),[2]; [14],66 mmol/L/s
same,t95%,[2]; [14],85 s
same,DBC,[1]; [15],67%
same,t95%,[1]; [15],58 s
same,RP (polymerization rate),[1]; [16],201 mmol/L/s
"CN(C)CC(O)COc1ccc(C(=O)c2ccccc2)cc1.Cl (centres unmarked) [BPQ, 3-(4-benzoylphenoxy)-2-hydroxy-N,N-dimethylpropane-1-amine Hydrochloride, reference compound]",concentration at which significant toxic effects were observed,[7],8000 µM
same,DBC,[6]; co-initiator MDEA,50%
same,RP (polymerization rate),[6]; co-initiator MDEA,30 mmol/L/s
same,t95%,[6]; co-initiator MDEA,87 s
"CCOC(=O)C(=O)c1ccccc1 [PGO, Ethyl Phenylglyoxylate, reference compound]",DBC,[1]; [13],75.1%
same,RP (polymerization rate),[1]; [13],204 mmol/L/s
same,t95%,[1]; [13],63.0 s
"CC1(C)COC(=O)C1=O [Compound 8, 4,4-dimethyldihydrofuran-2,3-dione]",DBC,[2]; [17],54%
same,RP (polymerization rate),[2]; [17],52 mmol/L/s
same,t95%,[2]; [17],90 s
same,longwave absorption maximum λmax,[5],378 nm
same,DBC,[1]; [18],66%
same,RP (polymerization rate),[1]; [18],189 mmol/L/s
same,t95%,[1]; [18],58 s
same,DBC,[6]; without co-initiator,56%
same,RP (polymerization rate),[6]; without co-initiator,26 mmol/L/s
same,t95%,[6]; without co-initiator,78 s
"CCC(=O)C(=O)OC [Compound 2, 2-oxobutanoic Acid Methyl Ester]",DBC,[2]; [10],57%
same,RP (polymerization rate),[2]; [10],71.2 mmol/L/s
same,t95%,[2]; [10],85.5 s
same,DBC (double bond conversion),[1]; [11],60.9%
same,RP (polymerization rate),[1]; [11],204 mmol/L/s
same,t95% (time after which 95% of reaction heat released),[1]; [11],40.5 s
CCOC(=O)C(=O)C(C)(C)O [Compound E5],DBC (double bond conversion),[1]; [11],63.1%
same,RP (polymerization rate),[1]; [11],218 mmol/L/s
same,t95% (time after which 95% of reaction heat released),[1]; [11],73.0 s
"C=C(C)C(=O)OCCOC(=O)CCC(=O)C(=O)OCCOC(=O)C(=C)C [Compound 11, α-Ketoglutaric Acid di(hydroxyethylmethacrylate) Ester]",DBC,[2]; [14],52%
same,RP (polymerization rate),[2]; [14],57 mmol/L/s
same,t95%,[2]; [14],93 s
same,DBC,[1]; [15],64%
same,t95%,[1]; [15],53 s
same,RP (polymerization rate),[1]; [16],203 mmol/L/s
"O=C(c1ccccc1)c1ccccc1 [BP, Benzophenone, reference compound]",DBC,[2]; [14],49%
same,RP (polymerization rate),[2]; [14],21 mmol/L/s
same,t95%,[2]; [14],143 s
same,DBC,[2]; [17],49%
same,RP (polymerization rate),[2]; [17],21 mmol/L/s
same,t95%,[2]; [17],143 s
same,DBC,[2]; [10],50%
same,RP (polymerization rate),[2]; [10],21.4 mmol/L/s
same,t95%,[2]; [10],146.5 s
same,Area,[4],642 J/g
same,DSC,[4],4.37 mW · mg^−1
same,DBC,[1]; [19],69%
same,RP (polymerization rate),[1]; [19],93 mmol/L/s
same,t95%,[1]; [19],69 s
same,DBC (double bond conversion),[1]; [11],68.9%
same,RP (polymerization rate),[1]; [11],96 mmol/L/s
same,t95% (time after which 95% of reaction heat released),[1]; [11],85.5 s
same,DBC,[1]; [12],69.3%
same,RP (polymerization rate),[1]; [12],109 mmol/L/s
same,t95%,[1]; [12],77.0 s
same,DBC,[1]; [15],69%
same,t95%,[1]; [15],69 s
same,DBC,[1]; [20],69%
same,RP (polymerization rate),[1]; [20],93 mmol/L/s
same,t95%,[1]; [20],69 s
same,RP (polymerization rate),[1]; [16],93 mmol/L/s
"CCOC(=O)C(=O)C(C)C [Compound 3, 2-oxo-3-Methylbutanoic Acid Ethyl Ester]",DBC,[2]; [10],57%
same,RP (polymerization rate),[2]; [10],81.5 mmol/L/s
same,t95%,[2]; [10],58.5 s
same,DBC (double bond conversion),[1]; [11],65.8%
same,t95% (time after which 95% of reaction heat released),[1]; [11],36.6 s
same,RP (polymerization rate),"[1]; monomer HDDA, co-initiator DMAB, listed as E3",241 mmol/L/s and 241.0 mmol/L/s
same,DBC,[1]; [12],65.2%
same,RP (polymerization rate),[1]; [12],228 mmol/L/s
same,t95%,[1]; [12],56.5 s
same,RP (polymerization rate),"[1]; monomer HDDA, co-initiator pentaerythritol-tetrakis(3-mercaptopropionate) (thiol)",233.5 mmol/L/s
same,DBC,[1]; [21],68.0%
same,t95%,[1]; [21],45.0 s
